According to DBAASP:
≈ marks a conversion by molar mass, not a printed value.

Experiments:
Assay in all cases: ≥ marks a high value that may be exact or a test limit, other limits are often not marked, values filed in µg/mL are converted to µM
[1] = test system: Staphylococcus aureus NCTC 10788
[2] = test system: Candida albicans ATCC 90028
[3] = test system: Escherichia coli ATCC 25922
[4] = test system: Staphylococcus aureus ATCC 25923
[5] = test system: Bacillus cereus
[6] = test system: Escherichia coli
[7] = test system: Staphylococcus aureus
[8] = test system: Pseudomonas aeruginosa ATCC 27853
[9] = test system: Staphylococcus aureus ATCC 29213
[10] = test system: Pseudomonas aeruginosa ATCC 9027
[11] = test system: Staphylococcus aureus ATCC 6538
[12] = test system: Candida albicans ATCC 2002
[13] = test system: Candida albicans

MIC [6] [µM]	MIC [7] [µM]	MIC [13] [µM]	Compound	other results
7.47 (≈ 16 µg/mL)	3.73 (≈ 8 µg/mL)	–	CC(C)C[C@H](NC(=O)[C@H](CCCCN)NC(=O)[C@H](Cc1ccccc1)NC(=O)[C@@H](NC(=O)[C@H](CCCCN)NC(=O)CNC(=O)[C@H](CC(C)C)NC(=O)[C@@H](N)Cc1ccccc1)C(C)C)C(=O)N[C@@H](C)C(=O)N[C@@H](CO)C(=O)N[C@@H](CCCCN)C(=O)N[C@H](C(=O)N[C@@H](Cc1ccccc1)C(=O)NCC(=O)N[C@@H](C)C(=O)N[C@H](C(=O)N[C@@H](Cc1ccccc1)C(=O)NCC(=O)N[C@@H](CCCCN)C(=O)N[C@H](C(=O)O)C(C)C)C(C)C)C(C)C [FLGKVFKLASKVFGAVFGKV]	MIC [5]: 3.73 µM (≈ 8 µg/mL)
15.3 (≈ 32 µg/mL)	> 123	–	CC(C)C[C@H](NC(=O)[C@@H](N)Cc1ccccc1)C(=O)NCC(=O)N[C@@H](CCCCN)C(=O)N[C@H](C(=O)N[C@@H](Cc1ccccc1)C(=O)N[C@@H](CCCCN)C(=O)NCC(=O)N[C@@H](C)C(=O)N[C@@H](CO)C(=O)N[C@@H](CCCCN)C(=O)N[C@H](C(=O)N[C@@H](Cc1ccccc1)C(=O)NCC(=O)N[C@@H](C)C(=O)N[C@H](C(=O)N[C@@H](Cc1ccccc1)C(=O)NCC(=O)N[C@@H](CCCCN)C(=O)N[C@H](C(=O)O)C(C)C)C(C)C)C(C)C)C(C)C [FLGKVFKGASKVFGAVFGKV]	MIC [5]: ≥ 61.3 µM
10 (≈ 26.4 µg/mL)	100 (≈ 264 µg/mL)	100 (≈ 264 µg/mL)	CC[C@H](C)[C@H](NC(=O)[C@H](CCCCN)NC(=O)[C@H](CS)NC(=O)[C@H](C)NC(=O)[C@@H](NC(=O)[C@H](Cc1ccccc1)NC(=O)CNC(=O)[C@H](CC(C)C)NC(=O)CNC(=O)[C@@H](NC(=O)[C@H](CCCCN)NC(=O)CNC(=O)[C@H](CC(C)C)NC(=O)[C@H](CC(N)=O)NC(=O)[C@H](CCCCN)NC(=O)[C@H](CC(C)C)NC(=O)[C@@H](NC(=O)[C@H](C)NC(=O)[C@H](CC(C)C)NC(=O)[C@H](CCSC)NC(=O)[C@@H](N)CO)C(C)C)C(C)C)C(C)C)C(=O)N[C@@H](CC(N)=O)C(=O)N[C@@H](CCCCN)C(=O)N[C@@H](CCC(N)=O)C(=O)N[C@@H](CS)C(=O)O [SMLAVLKNLGKVGLGFVACKINKQC]	–
–	–	133 (≈ 255 µg/mL)	CC(C)C[C@H](NC(=O)CNC(=O)[C@H](C)NC(=O)[C@@H](N)CCCCN)C(=O)N[C@@H](C)C(=O)N[C@@H](Cc1ccccc1)C(=O)N1CCC[C@H]1C(=O)N[C@H](C(=O)NCC(=O)N[C@@H](CCCN=C(N)N)C(=O)N[C@H](C(=O)N[C@@H](Cc1cnc[nH]1)C(=O)N[C@@H](CCCN=C(N)N)C(=O)N[C@@H](CC(C)C)C(=O)N[C@@H](CC(C)C)C(=O)N[C@@H](CCCN=C(N)N)C(=O)N[C@@H](CCCCN)C(=O)O)C(C)C)C(C)C [KAGLAFPVGRVHRLLRK]	–
20 (≈ 52.4 µg/mL)	100 (≈ 262 µg/mL)	100 (≈ 262 µg/mL)	CC[C@H](C)[C@H](NC(=O)[C@H](CCCCN)NC(=O)[C@H](CO)NC(=O)[C@H](C)NC(=O)[C@@H](NC(=O)[C@H](Cc1ccccc1)NC(=O)CNC(=O)[C@H](CC(C)C)NC(=O)CNC(=O)[C@@H](NC(=O)[C@H](CCCCN)NC(=O)CNC(=O)[C@H](CC(C)C)NC(=O)[C@H](CC(N)=O)NC(=O)[C@H](CCCCN)NC(=O)[C@H](CC(C)C)NC(=O)[C@@H](NC(=O)[C@H](CO)NC(=O)[C@H](CC(C)C)NC(=O)[C@H](CCSC)NC(=O)[C@@H](N)CO)C(C)C)C(C)C)C(C)C)C(=O)N[C@@H](CC(N)=O)C(=O)N[C@@H](CCCCN)C(=O)N[C@@H](CCC(N)=O)C(=O)N[C@@H](CO)C(=O)O [SMLSVLKNLGKVGLGFVASKINKQS]	–
> 122	> 122	–	CC(C)C[C@H](NC(=O)[C@@H](N)Cc1ccccc1)C(=O)NCC(=O)N[C@H](C(=O)N[C@H](C(=O)N[C@@H](Cc1ccccc1)C(=O)N[C@@H](CCCCN)C(=O)NCC(=O)N[C@@H](C)C(=O)N[C@@H](CO)C(=O)N[C@@H](CCCCN)C(=O)N[C@H](C(=O)N[C@@H](Cc1ccccc1)C(=O)N1CCC[C@H]1C(=O)N[C@@H](C)C(=O)N[C@H](C(=O)N[C@@H](Cc1ccccc1)C(=O)NCC(=O)N[C@@H](CCCCN)C(=O)N[C@H](C(=O)O)C(C)C)C(C)C)C(C)C)C(C)C)C(C)C [FLGVVFKGASKVFPAVFGKV]	MIC [5]: ≥ 122 µM

Second part, the compound before the results:

Compound	MIC [6] [µM]	MIC [7] [µM]	MIC [13] [µM]	other results
CC(C)C[C@H](NC(=O)[C@H](CC(C)C)NC(=O)[C@H](CO)NC(=O)CNC(=O)[C@H](CC(C)C)NC(=O)[C@H](CC(C)C)NC(=O)CNC(=O)[C@H](CC(C)C)NC(=O)[C@@H](N)Cc1ccccc1)C(N)=O [FLGLLGSLL]	–	–	–	MIC [1]: ≥ 34 µM
CC[C@H](C)[C@@H]1NC(=O)[C@H](CCCCN)NC(=O)[C@@H](NC(=O)[C@H](CCCCN)NC(=O)[C@H](CC(C)C)NC(=O)[C@H](CCCCN)NC(=O)[C@H](CC(=O)O)NC(=O)[C@H](CC(C)C)NC(=O)[C@H](CCSC)NC(=O)[C@H](CCC(N)=O)NC(=O)CNC(=O)[C@H](C)NC(=O)[C@H](CC(C)C)NC(=O)[C@H](CC(N)=O)NC(=O)[C@H](CCCCN)NC(=O)[C@H](C)NC(=O)[C@H](C)NC(=O)[C@H](CC(N)=O)NC(=O)[C@H](CCCCN)NC(=O)[C@@H](NC(=O)[C@@H](NC(=O)[C@H](CC(=O)O)NC(=O)[C@H](CCSC)NC(=O)[C@H](CC(C)C)NC(=O)CN)[C@@H](C)O)C(C)C)CSSC[C@@H](C(=O)O)NC(=O)[C@H](CO)NC(=O)CNC(=O)[C@H]([C@@H](C)O)NC1=O [GLMDTVKNAAKNLAGQMLDKLKCKITGSC]	–	–	–	MIC [2]: ≥ 100 µM; MIC [3]: 50 µM (≈ 153 µg/mL); MIC [4]: > 200 µM
CC[C@H](C)[C@H](NC(=O)[C@H](CCCN=C(N)N)NC(=O)[C@H](CCCCN)NC(=O)[C@@H](NC(=O)[C@H](CCCCN)NC(=O)[C@H](CCCN=C(N)N)NC(=O)[C@@H](N)CCCCN)C(C)C)C(=O)N[C@@H](CCCCN)C(=O)N[C@@H](CCCCN)C(=O)N[C@@H](Cc1ccccc1)C(=O)N[C@@H](CC(C)C)C(=O)N[C@@H](CCCN=C(N)N)C(=O)O [KRKVKRIKKFLR]	–	–	–	MIC [2]: 1.25 µM (≈ 2 µg/mL); MIC [3]: 0.625 µM (≈ 1 µg/mL); MIC [8]: 2.5 µM (≈ 4 µg/mL); MIC [9]: 20 µM (≈ 32 µg/mL)
CC(C)C[C@H](NC(=O)[C@H](Cc1ccccc1)NC(=O)[C@H](CCCCN)NC(=O)[C@H](CCCCN)NC(=O)[C@H](CC(C)C)NC(=O)[C@H](C)NC(=O)[C@H](CCCCN)NC(=O)[C@H](C)NC(=O)[C@H](CC(C)C)NC(=O)[C@H](CC(C)C)NC(=O)[C@H](CCCCN)NC(=O)[C@H](C)NC(=O)[C@@H](N)Cc1ccccc1)C(N)=O [FAKLLAKALKKFL]	–	–	–	MIC [10]: 67.1 µM (≈ 99.9 µg/mL); MIC [11]: 6.71 µM (≈ 9.99 µg/mL)
CC[C@H](C)[C@H](NC(=O)[C@@H](NC(=O)[C@@H](NC(=O)[C@@H]1CCCN1C(=O)[C@H](Cc1c[nH]c2ccccc12)NC(=O)[C@H](Cc1ccccc1)NC(=O)[C@H](CCCN=C(N)N)NC(=O)[C@H](CCCCN)NC(=O)[C@@H](NC(=O)[C@@H](N)CCCN=C(N)N)[C@@H](C)CC)C(C)C)C(C)C)C(=O)N[C@@H](CCCN=C(N)N)C(=O)O [RIKRFWPVVIR]	–	–	–	MIC [12]: ≥ 102 µM
NCCCC[C@H](NC(=O)[C@H](CCC(=O)O)NC(=O)[C@@H](N)CC(=O)O)C(=O)NCC(=O)N1CCC[C@H]1C(=O)N[C@@H](CCCCN)C(=O)N[C@@H](Cc1c[nH]c2ccccc12)C(=O)N[C@@H](CCCCN)C(=O)N[C@@H](CCCN=C(N)N)C(=O)O [DEKGPKWKR]	–	–	30.8 (≈ 35.2 µg/mL)	–
CC[C@H](C)[C@H](NC(=O)[C@H](CC(C)C)NC(=O)[C@H](CCCCN)NC(=O)CNC(=O)[C@@H](NC(=O)[C@@H](N)Cc1ccccc1)[C@@H](C)CC)C(=O)N[C@@H](CO)C(=O)N[C@@H](C)C(=O)N[C@@H](C)C(=O)N[C@@H](CO)C(=O)NCC(=O)N[C@@H](CC(C)C)C(=O)N[C@@H](CC(C)C)C(=O)N[C@@H](CO)C(=O)N[C@@H](Cc1cnc[nH]1)C(=O)N[C@@H](CC(C)C)C(N)=O [FIGKLISAASGLLSHL]	38.4 (≈ 62.4 µg/mL)	9.5 (≈ 15.4 µg/mL)	150 (≈ 244 µg/mL)	–
CC(=O)N[C@@H](CCCCN)C(=O)N[C@@H](Cc1ccc(O)cc1)C(=O)N[C@H](C(=O)NCC(=O)N[C@@H](CCCCN)C(=O)N[C@@H](CS)C(=O)N[C@@H](Cc1ccc(O)cc1)C(=O)N[C@@H](CCCCN)C(=O)N[C@@H](CCCCN)C(=O)N[C@@H](CCCCN)C(=O)N[C@@H](CC(N)=O)C(=O)N[C@@H](CCC(=O)O)C(=O)N[C@@H](CS)C(=O)N[C@@H](CCCCN)C(N)=O)[C@@H](C)O [KYTGKCYKKKNECK]	–	–	2.5 (≈ 4.41 µg/mL)	–
CC[C@H](C)[C@H](NC(=O)[C@H](C)NC(=O)[C@H](CCCN=C(N)N)NC(=O)[C@H](Cc1ccc(O)cc1)NC(=O)[C@H](CC(C)C)NC(=O)[C@H](CC(N)=O)NC(=O)[C@H](Cc1ccc(O)cc1)NC(=O)CNC(=O)[C@H](C)NC(=O)[C@@H](NC(=O)[C@@H](NC(=O)[C@@H](NC(=O)[C@H](CCCN=C(N)N)NC(=O)[C@@H](NC(=O)[C@@H](N)C(C)C)[C@@H](C)CC)[C@@H](C)O)C(C)C)C(C)C)C(=O)N[C@@H](CCCCN)C(=O)N[C@@H](CCCCN)C(=O)N[C@@H](CCCCN)C(=O)O [VIRTVVAGYNLYRAIKKK]	–	–	–	MIC [12]: ≥ 35.8 µM
CC[C@H](C)[C@H](NC(=O)[C@H](C)NC(=O)[C@H](CCCN=C(N)N)NC(=O)[C@H](Cc1ccc(O)cc1)NC(=O)[C@H](CC(C)C)NC(=O)[C@H](CC(N)=O)NC(=O)[C@H](Cc1ccc(O)cc1)NC(=O)CNC(=O)[C@H](C)NC(=O)[C@@H](NC(=O)[C@@H](NC(=O)[C@@H](NC(=O)[C@H](CCCN=C(N)N)NC(=O)[C@@H](NC(=O)[C@@H](NC(=O)[C@@H](N)C(C)C)C(C)C)[C@@H](C)CC)[C@@H](C)O)C(C)C)C(C)C)C(=O)N[C@@H](CCCCN)C(=O)N[C@@H](CCCCN)C(=O)N[C@@H](CCCCN)C(=O)O [VVIRTVVAGYNLYRAIKKK]	–	–	–	MIC [12]: 25.7 µM (≈ 56.3 µg/mL)
